Measurements as given in ChEMBL document CHEMBL1149403, “Design, synthesis, and anti-Helicobacter pylori activity of erythromycin A (E)-9-oxime ether derivatives” (2006).
Converted amounts (≈) assume the structure as drawn.

Tested on: Helicobacter pylori
Experiment: Inhibitory activity against Helicobacter pylori NCTC-10638
Type: functional

| Compound | MIC [µg/mL] |
| --- | --- |
| CC[C@H]1OC(=O)[C@H](C)C(=O)[C@H](C)C(O[C@@H]2O[C@H](C)C[C@H](N(C)C)[C@@H]2O)[C@](C)(OC)C[C@@H](C)/C(=N\OCOc2ccccc2OC)[C@H](C)[C@@H](O)[C@]1(C)O (some centres not stated) | 0.04 (≈ 0.0541 µM) |
| CC[C@H]1OC(=O)[C@H](C)C(O[C@H]2C[C@](C)(OC)[C@@H](O)[C@@H](C)O2)[C@H](C)C(O[C@@H]2O[C@H](C)C[C@H](N(C)C)[C@@H]2O)[C@](C)(O)C[C@@H](C)/C(=N\OCOc2ccccc2OC)[C@H](C)[C@@H](O)[C@]1(C)O (some centres not stated) | 0.03 (≈ 0.0339 µM) |
| CC[C@H]1OC(=O)[C@H](C)C(=O)[C@H](C)C(O[C@@H]2O[C@H](C)C[C@H](N(C)C)[C@@H]2O)[C@](C)(OC)C[C@@H](C)/C(=N\OCOc2ccc(OC)cc2)[C@H](C)[C@@H](O)[C@]1(C)O (some centres not stated) | 0.02 (≈ 0.0271 µM) |
| CC[C@H]1OC(=O)[C@H](C)C(O[C@H]2C[C@](C)(OC)[C@@H](O)[C@@H](C)O2)[C@H](C)C(O[C@@H]2O[C@H](C)C[C@H](N(C)C)[C@@H]2O)[C@](C)(OC)C[C@@H](C)/C(=N\OCOc2ccccc2OC)[C@H](C)[C@@H](O)[C@]1(C)O (some centres not stated) | 0.02 (≈ 0.0222 µM) |
| CC[C@H]1OC(=O)[C@H](C)C(O[C@H]2C[C@](C)(OC)[C@@H](O)[C@@H](C)O2)[C@H](C)C(O[C@@H]2O[C@H](C)C[C@H](N(C)C)[C@@H]2O)[C@](C)(O)C[C@@H](C)/C(=N\OCOc2ccc(OC)cc2)[C@H](C)[C@@H](O)[C@]1(C)O (some centres not stated) | 0.02 (≈ 0.0226 µM) |
| CC[C@H]1OC(=O)[C@H](C)C(O[C@H]2C[C@](C)(OC)[C@@H](O)[C@@H](C)O2)[C@H](C)C(O[C@@H]2O[C@H](C)C[C@H](N(C)C)[C@@H]2O)[C@](C)(OC)C[C@@H](C)/C(=N\OCOc2ccc(OC)cc2)[C@H](C)[C@@H](O)[C@]1(C)O (some centres not stated) | 0.03 (≈ 0.0334 µM) |
| CC[C@H]1OC(=O)[C@H](C)[C@@H](O[C@H]2C[C@@](C)(OC)[C@@H](O)[C@H](C)O2)[C@H](C)[C@@H](O[C@@H]2O[C@H](C)C[C@H](N(C)C)[C@H]2O)[C@](C)(OC)C[C@@H](C)C(=O)[C@H](C)[C@@H](O)[C@]1(C)O [CLARITHROMYCIN] | 0.02 (≈ 0.0267 µM) |
